{"source": "patent US9403756B2", "about": "“N-phenyl anthranilic acid derivatives and uses thereof” (Ramot at Tel-Aviv University Ltd., priority 2007, dated 2016)", "key": {"Kv 4.3": {"biological_target": "T1, Kv 4.3 (Homo sapiens, UniProt Q9UK17)", "T1 construct": "expressed in transfected cells; host or cells: Xenopus oocytes", "assay": "Kv channel selectivity, Xenopus oocytes: Kv4.3", "assay_type": "cell-based", "conditions": "25 μM, +30 mV", "description": "(§1) Voltage-clamp measurements in Xenopus oocytes were performed as previously described.\n(§2) The selectivity of NH29 on other relevant Kv channels expressed in Xenopus oocytes was also studied, and the results are summarized in Table 3 below. The specificity of NH29 at 25 μM and 50 μM towards various Kv channels was tested in Xenopus oocytes, except for Kv1.2 which was checked in transfected CHO cells. The current amplitude of the various Kv channels was tested at the indicated voltages and the effect of the drugs was expressed as fold of the control amplitude measured under the same conditions in the absence of the drug. The data in Table 3 are expressed as mean±SEM of 5-7 separate experiments."}, "IKS": {"biological_target": "T2, IKS (Homo sapiens, UniProt P51787)", "T2 construct": "expressed in transfected cells; host or cells: Xenopus oocytes", "assay": "Kv channel selectivity, Xenopus oocytes: IKS", "assay_type": "cell-based", "conditions": "+30 mV", "description": "as §1, §2"}, "Kv7.3 mutant A315T": {"biological_target": "T3, Kv7.3 mutant A315T (Homo sapiens, UniProt O43525, A315T)", "T3 construct": "expressed in transfected cells", "T3 sequence (O43525 whole entry A315T)": "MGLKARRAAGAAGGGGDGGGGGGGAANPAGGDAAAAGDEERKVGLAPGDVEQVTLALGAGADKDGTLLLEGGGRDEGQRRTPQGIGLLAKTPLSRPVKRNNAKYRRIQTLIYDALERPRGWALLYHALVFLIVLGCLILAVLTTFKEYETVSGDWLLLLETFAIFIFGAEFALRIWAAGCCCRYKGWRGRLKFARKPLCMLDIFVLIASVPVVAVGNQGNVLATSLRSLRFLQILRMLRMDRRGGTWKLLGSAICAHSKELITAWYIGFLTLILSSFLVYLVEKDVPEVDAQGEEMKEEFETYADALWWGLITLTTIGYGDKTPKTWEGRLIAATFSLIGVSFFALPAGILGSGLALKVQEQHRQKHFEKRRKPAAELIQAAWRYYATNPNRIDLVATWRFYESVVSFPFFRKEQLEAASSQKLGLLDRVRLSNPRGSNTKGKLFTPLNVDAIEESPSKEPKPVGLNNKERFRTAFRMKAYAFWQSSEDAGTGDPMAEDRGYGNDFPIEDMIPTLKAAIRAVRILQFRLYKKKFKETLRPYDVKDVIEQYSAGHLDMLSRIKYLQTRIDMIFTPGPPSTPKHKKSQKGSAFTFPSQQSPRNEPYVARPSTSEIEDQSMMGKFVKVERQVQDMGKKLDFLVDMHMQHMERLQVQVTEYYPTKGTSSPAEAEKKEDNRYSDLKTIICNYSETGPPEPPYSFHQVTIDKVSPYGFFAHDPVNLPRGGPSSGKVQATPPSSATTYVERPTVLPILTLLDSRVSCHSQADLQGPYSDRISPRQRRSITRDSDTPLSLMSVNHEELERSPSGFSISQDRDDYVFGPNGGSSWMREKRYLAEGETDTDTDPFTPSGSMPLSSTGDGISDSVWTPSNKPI", "assay": "Activation of Kv7.3 mutant A315T", "assay_type": "cell-based", "description": "Among the Kv7 channel family, NH29 appeared to act as an opener of Kv7.2 but not of Kv7.1 and Kv7.4."}, "TRPV6 channel": {"biological_target": "T4, TRPV6 channel (Homo sapiens, UniProt Q9H1D0)", "T4 construct": "expressed in transfected cells; host or cells: CHO cells", "assay": "TRPV6 currents in transfected CHO cells", "assay_type": "cell-based", "conditions": "25 μM NH29; −80 mV to 100 mV", "description": "FIGS. 15A-C present the lack of effect of NH29, an exemplary compound according to some embodiments of the present invention, on TRPV6 channel. FIG. 15A presents superimposed representative traces recorded from a CHO cell transfected with TRPV6 before (marked control) during (marked 165s) and after (marked wash) external application of 25 μM NH29, and wherein the membrane potential was stepped from −80 mV to 100 mV for 40 seconds pulse duration (protocol shown in upper panel). The current amplitude was measured at peak current points (marked a 1 at −80 mV and a2 at +100 mV) and plotted as a function of recording time (FIGS. 15B and 15C respectively).\nChinese hamster ovary (CHO) cells were grown in Dulbecco's modified Eagle's medium (DMEM) supplemented with 2 mM glutamine, 10% fetal calf serum and antibiotics. Briefly, 40,000 cells seeded on poly-D-lysine-coated glass coverslips (13 mm diameter) in a 24-multiwell plate were transfected with pIRES-CD8 (0.5 μg) as a marker for transfection, and with Kv7.2 (0.5 μg) and Kv7.3 (0.5 μg) or TRPV1 […] or TRPV6 […].\nFor electrophysiology, transfected cells were visualized approximately 40 hours following transfection, using anti-CD8 antibody-coated beads. Transfection was performed using Fugene 6 (Roche, Indianapolis Ind., USA) according to the manufacturer's protocol. […]"}, "wild type KCNQ2": {"biological_target": "T5, wild type KCNQ2 (Homo sapiens, UniProt O43526)", "T5 construct": "expressed in transfected cells; host or cells: CHO cells (printed for the mutants and in the general method)", "assay": "Wild type KCNQ2 (Kv7.2) currents, patch-clamp", "assay_type": "cell-based", "conditions": "NH29", "description": "FIGS. 10A-D present the potentiating effect of NH29, an exemplary channel opener compound according to embodiments of the present invention, on wild type KCNQ2 (FIGS. 10A and 10B) and R207W mutant (FIGS. 10C and 10D) channels, as expressed in activation curve measurements, showing that NH29 left-shifts the activation curve (ΔV50) by −15.5 mV and −5.5 mV in the case of the wild-type and the mutant, respectively, and showing that NH29 enhances the current of wild-type and the mutant by about 3.4-fold (at −40 mV) and 1.5-fold (at −20 mV), respectively.\nVoltage-clamp recordings in CHO cells were performed, using the whole-cell configuration of the patch-clamp technique. Signals were amplified using an Axopatch 200B patch-clamp amplifier (Molecular Devices, Sunnyvale, Calif.), sampled at 2 kHz and filtered at 800 Hz via a 4-pole Bessel low pass filter. Data were acquired using pClamp 9.2 software (Molecular Devices) and an IBM compatible Pentium IV computer in conjunction with a DigiData 1322A interface (Molecular Devices). The patch pipettes were pulled from borosilicate glass (Warner Instrument Corp, USA) with a resistance of 2-5 MΩ. […] Series resistances (3-13 MΩ) were compensated (75-90%) and periodically monitored."}, "KCNQ2 mutant L197G": {"biological_target": "T6, KCNQ2 mutant L197G (Homo sapiens, UniProt O43526, L197G)", "T6 construct": "expressed in transfected cells", "T6 sequence (O43526 whole entry L197G)": "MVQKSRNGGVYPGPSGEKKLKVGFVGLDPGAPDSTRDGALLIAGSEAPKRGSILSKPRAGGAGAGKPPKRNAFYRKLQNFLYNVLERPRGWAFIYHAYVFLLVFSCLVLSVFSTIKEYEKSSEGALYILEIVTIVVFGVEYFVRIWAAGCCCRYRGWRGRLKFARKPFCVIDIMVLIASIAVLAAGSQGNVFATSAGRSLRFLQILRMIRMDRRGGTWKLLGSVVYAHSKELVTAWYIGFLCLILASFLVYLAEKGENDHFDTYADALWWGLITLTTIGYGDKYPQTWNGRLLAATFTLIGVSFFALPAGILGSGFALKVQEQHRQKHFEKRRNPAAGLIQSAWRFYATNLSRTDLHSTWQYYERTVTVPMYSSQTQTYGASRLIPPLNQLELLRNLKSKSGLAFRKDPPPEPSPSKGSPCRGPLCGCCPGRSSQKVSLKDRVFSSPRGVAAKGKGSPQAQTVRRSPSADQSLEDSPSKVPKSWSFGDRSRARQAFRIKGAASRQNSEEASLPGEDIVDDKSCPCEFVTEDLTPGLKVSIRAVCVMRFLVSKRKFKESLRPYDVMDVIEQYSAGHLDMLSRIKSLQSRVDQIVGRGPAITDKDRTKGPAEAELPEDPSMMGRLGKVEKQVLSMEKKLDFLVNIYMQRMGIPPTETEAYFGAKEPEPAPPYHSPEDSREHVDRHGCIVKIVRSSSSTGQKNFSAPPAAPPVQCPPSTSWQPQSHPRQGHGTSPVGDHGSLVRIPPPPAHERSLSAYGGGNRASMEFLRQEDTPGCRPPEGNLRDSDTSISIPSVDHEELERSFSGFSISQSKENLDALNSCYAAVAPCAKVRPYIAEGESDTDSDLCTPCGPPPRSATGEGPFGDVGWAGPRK", "assay": "KCNQ2 S4 mutant L197G", "assay_type": "cell-based", "conditions": "25 μM NH29 (25 M [sic])", "description": "(§3) FIGS. 12A-F present the potentiating effect of NH29, an exemplary channel opener compound according to embodiments of the present invention, on selected KCNQ2 mutants. Shown are bar diagrams comparing the potentiating effect of NH29 on native KCNQ2 and KCNQ2 mutants, wherein the mutated amino acids are located at the S1-S2 helix region (FIG. 12A) or S4 helix region (FIG. 12D) and wherein the opener effect is expressed as percent of the control current in the absence of the opener. For comparison, marked as a green line, is the observed current increase of native KCNQ2 by NH29. FIGS. 12B 12C, 12E and 12F present representative traces recorded from CHO cell transfected with the KCNQ2 mutant S122A, S121A, L206C and R201A respectively, before and after external application of 25 μM of NH29 and wherein the membrane potential was stepped from −90 mV holding potential to −40 mV for 1.5 seconds pulse duration.\n(§4) Voltage-clamp recordings in CHO cells were performed, using the whole-cell configuration of the patch-clamp technique. Signals were amplified using an Axopatch 200B patch-clamp amplifier (Molecular Devices, Sunnyvale, Calif.), sampled at 2 kHz and filtered at 800 Hz via a 4-pole Bessel low pass filter. […] Series resistances (3-13 MΩ) were compensated (75-90%) and periodically monitored."}, "KCNQ2 mutant Y118S": {"biological_target": "T7, KCNQ2 mutant Y118S (Homo sapiens, UniProt O43526, Y118S)", "T7 construct": "expressed in transfected cells", "T7 sequence (O43526 whole entry Y118S)": "as the sequence (O43526 whole entry L197G) above, with Y118S, G197L counted along it", "assay": "KCNQ2 mutant Y118S", "assay_type": "cell-based", "conditions": "25 μM NH29", "description": "FIG. 8 presents a bar-graph comparing the potentiating effect of 25 μM of Compound NH29 on various KCNQ subunits and mutants, wherein the opener effect is expressed as percent of the control current in the absence of the opener;"}, "KCNQ2 mutant R214W": {"biological_target": "T8, KCNQ2 mutant R214W (Homo sapiens, UniProt O43526, R214W)", "T8 construct": "expressed in transfected cells; host or cells: CHO cells", "T8 sequence (O43526 whole entry R214W)": "as the sequence (O43526 whole entry L197G) above, with G197L, R214W counted along it", "assay": "KCNQ2 S4 mutant R214W", "assay_type": "cell-based", "conditions": "NH29; to a lesser extent", "description": "as §3, §4"}, "DRG neurons": {"tested_on": "DRG neurons", "assay": "Current-clamp recordings in cultured DRG neurons", "assay_type": "cell-based, rat", "conditions": "25 μM NH29; 75-250 pA for 400 ms; control 8.7±0.8; n=12"}}, "note": "“Also recorded” adds a separate entry of the source."}
{"smiles": "O=C(Cc1cc([N+](=O)[O-])cc([N+](=O)[O-])c1Nc1c(Cl)cc([N+](=O)[O-])cc1Cl)NCCO", "note": "[NH29]", "values": [{"measurement": "Fold current amplitude", "setting": "Kv 4.3", "result": "1.1 ± 0.04", "unit": "fold"}, {"measurement": "Fold current amplitude", "setting": "IKS; 25 μM", "result": "1.02 ± 0.04", "unit": "fold"}, {"measurement": "Fold current amplitude", "setting": "IKS; 50 μM", "result": "0.97 ± 0.04", "unit": "fold"}, {"measurement": "activation of Kv7.3 mutant A315T", "setting": "Kv7.3 mutant A315T", "result": "could also activate Kv7.3"}, {"measurement": "modulation of TRPV6 current", "setting": "TRPV6 channel", "result": "lack of modulation; also recorded: no similar inhibition of TRPV6 was observed"}, {"measurement": "left-shift of the activation curve (ΔV50)", "setting": "wild type KCNQ2", "result": "−15.5", "unit": "mV"}, {"measurement": "fold enhancement of current", "setting": "KCNQ2 mutant L197G", "result": 1.5, "unit": "fold"}, {"measurement": "fold potentiation of current", "setting": "KCNQ2 mutant Y118S", "result": 2.1, "unit": "fold"}, {"measurement": "sensitivity to the activating effect compared to wild-type Kv7.2", "setting": "KCNQ2 mutant R214W", "result": "significantly less sensitive"}, {"measurement": "number of evoked action potentials", "setting": "DRG neurons", "result": "0.9±0.1"}]}
